Experimental data from patent publication US12213985B2, “Oral cannabinoid formulations” (Jazz Pharmaceuticals Research UK Limited, priority 2016, dated 2025).
Where a SMILES comes first, the peptide text is derived from it.

Legend:
[1] = derived from FDA website; cited from earlier work
[2] = Physical stability of Neotame formulations, open bottles standing 2 weeks; assay type: physicochemical
Procedure: The 25 mg/ml and 100 mg/ml batches were tested for physical stability by opening the bottles and allowing them to stand for 2 weeks to let the ethanol evaporate. This was done as a worst case in-use scenario where the bottle is repeatedly opened and closed multiple times during use. The batches were monitored for any signs of precipitation and the ethanol content measured.

[3] = Miscibility of alternative solvents with sesame oil; assay type: physicochemical; conditions: range of concentrations (0.5-10%) tested
[4] = Lowest ethanol concentration to solubilise Advantame, storage and observation for precipitation (ET03/015); assay type: physicochemical; conditions: Advantame 0.0025% w/v in sesame oil formulation
Procedure: An experiment (ET03/015) was carried out to determine the lowest ethanol concentration required to solubilise Advantame. Table 3 details the batches made with various ethanol concentrations ranging from 0.5% to 3.0% v/v.
These batches were stored at 25° C./60% RH and 40° C./75% RH for up to 4 weeks and observed for any signs of precipitation. There was no precipitation observed over the period assessed. Therefore it was concluded that Advantame can be used as a sweetener and can be solubilised at ethanol concentration of at least as low as 0.5% v/v. i.e. the concentration of ethanol required in the formulation can be reduced by a factor of 20 compared to a sucralose containing formulation.

SMILES | Acceptable Daily Intake [1] [mg/kg/day] | other results
COC(=O)[C@H](Cc1ccccc1)NC(=O)[C@@H](N)CC(=O)O [Aspartame] (H-Asp-Phe-OMe) | 50 | 
O=C1NS(=O)(=O)c2ccccc21 [Saccharin] | 15 | 
COC(=O)[C@H](Cc1ccccc1)NC(=O)[C@H](CC(=O)O)NCCC(C)(C)C [Neotame, N—[N-(3,3-dimethylbutyl)-L-α-aspartyl]-L-phenylalanine 1-methyl ester] | 0.3 | concentration at which Neotame can be physically solubilised ([2]; in ethanol): up to 0.01 % w/v; solubility in ethanol ([2]; room temperature): freely soluble
O.O.O=C1NS(=O)(=O)c2ccccc21 [Saccharin Dihydrate] | 15 | 
OC[C@H]1O[C@H](O[C@]2(CCl)O[C@H](CCl)[C@@H](O)[C@@H]2O)[C@H](O)[C@@H](O)[C@H]1Cl [Sucralose, reference compound] | 5 | 
OCC(O)CO [glycerin] |  | miscibility with sesame oil [3]: not satisfactory
CC(O)CO (centres unmarked) [propylene glycol] |  | miscibility with sesame oil [3]: not satisfactory
COC(=O)[C@H](Cc1ccccc1)NC(=O)[C@H](CC(=O)O)NCCCc1ccc(OC)c(O)c1 [Advantame, N—[N-3-(3-hydroxy-4-methoxyphenyl)propyl-α-L-aspartyl]-L-phenylalanine 1-methyl ester] | 32.8 | ethanol concentration at which the sweetener can be solubilised [4]: ≤ 0.5 % v/v
